Test results as given in patent US8470787B2, “Hydrates of erythromycin salts, preparation and use thereof” (priority 2008, dated 2013).

Legend:
[1] = hygroscopic test according to China Pharmacopeia CP2005; type: physicochemical; settings: 25° C., relative humidity 75%
Escherichia coli = test: antibacterial activity, tube double dilution method, clinically obtained bacteria; type: cell-based; settings: 21 strains
Streptococcus viridan = test: as above; type: cell-based; settings: 23 strains
[2] = tested on: Staphylococcus epidermidis; test: as above; type: cell-based; settings: 21 strains
Bacillus influenzae = test: as above; type: cell-based; settings: for MIC50 / MIC90: 17 strains; for MIC: range over 17 strains
Method: (§1) The antibacterial activities of the hydrates of erythromycin salts are determined by culturing clinically obtained bacteria and measuring in accordance with pharmacological test methods (the tube double dilution method), and the results are shown in the following tables 9, 10, 11 and 12.

Neisseria gonorrhoeae = test: as above; type: cell-based; settings: for MIC50 / MIC90: 16 strains; for MIC: range over 16 strains
Method: as §1

Pneumococcus = test: as above; type: cell-based; settings: for MIC50 / MIC90: 18 strains; for MIC: range over 18 strains
Method: as §1

Bacillus fragilis = test: as above; type: cell-based; settings: for MIC50 / MIC90: 15 strains; for MIC: range over 15 strains
Method: as §1

Propionibacterium = test: as above; type: cell-based; settings: for MIC50 / MIC90: 18 strains; for MIC: range over 18 strains
Method: as §1

Anaerobe = test: as above; type: cell-based
Method: as §1

[3] = tested on: Streptococcus hemolyticus; test: as above; type: cell-based; settings: for MIC50 / MIC90: 16 strains; for MIC: range over 16 strains
Method: as §1

[4] = accelerated stability test (sealed vial, 30° C., HPLC content and related substances); type: physicochemical
Method: The hydrates of erythromycin salts according to the present invention can be stably stored. A sample of the above hydrates was sealed in a vial, and an accelerated stability test was conducted at 30° C. and changes of the content and related substances were measured by a HPLC method (C18 reverse phase column, 0.01M KH2PO4-acetonitrile (60:40) as the mobile phase, detective wavelength: 215 nm, column temperature: 35° C., flow rate: 1.0 ml/min) (upon different hydrates of erythromycin salts, such as crystalline hydrates of erythromycin thiocyanate, the pH of the mobile phase can be adjusted and KH2PO4 can be changed into NaH2PO4, the detective wavelength can be changed into 210 nm, and the column temperature can be set at 35-55° C., such as 50° C. for analysis and measurement). […] As compared to the anhydrous of erythromycin salt, the hydrates of erythromycin salts according to the present invention have a lower hygroscopicity, i.e., has a better stability of hygroscopicity, which facilitates the package and storage thereof, or is a more advantageously stable form for storage relative to the anhydrous.

Staphylococcus aureus = test: antibacterial activity, tube double dilution method, clinically obtained bacteria; type: cell-based; settings: 26 strains
[5] = spray-dried product

| Compound | MIC50 (Escherichia coli) [µg/mL] | MIC50 (Streptococcus viridan) [µg/mL] | MIC90 (Streptococcus viridan) [µg/mL] | MIC50 [2] [µg/mL] | MIC50 (Bacillus influenzae) [µg/mL] | MIC90 (Bacillus influenzae) [µg/mL] | MIC (Bacillus influenzae) [µg/mL] | MIC50 (Neisseria gonorrhoeae) [µg/mL] | MIC90 (Neisseria gonorrhoeae) [µg/mL] | MIC (Neisseria gonorrhoeae) [µg/mL] | MIC50 (Pneumococcus) [µg/mL] | MIC90 (Pneumococcus) [µg/mL] | MIC (Pneumococcus) [µg/mL] | MIC50 (Bacillus fragilis) [µg/mL] | MIC90 (Bacillus fragilis) [µg/mL] | MIC (Bacillus fragilis) [µg/mL] | MIC50 (Propionibacterium) [µg/mL] | MIC90 (Propionibacterium) [µg/mL] | MIC (Propionibacterium) [µg/mL] | MIC50 [3] [µg/mL] | further results |
| --- | --- | --- | --- | --- | --- | --- | --- | --- | --- | --- | --- | --- | --- | --- | --- | --- | --- | --- | --- | --- | --- |
| CC[C@H]1OC(=O)[C@H](C)[C@@H](O[C@H]2C[C@@](C)(OC)[C@@H](O)[C@H](C)O2)[C@H](C)[C@@H](O[C@@H]2O[C@H](C)C[C@H](N(C)C)[C@H]2O)[C@](C)(O)C[C@@H](C)C(=O)[C@H](C)[C@@H](O)[C@]1(C)O.O=C(O)[C@H](O)[C@@H](O)[C@H](O[C@@H]1O[C@H](CO)[C@H](O)[C@H](O)[C@H]1O)[C@H](O)CO [Erythromycin lactobionate anhydrous, reference compound] |  |  |  |  |  |  |  |  |  |  |  |  |  |  |  |  |  |  |  |  | hygroscopicity (in words), compared with the anhydrous [1]: more hygroscopic |
| CC[C@H]1OC(=O)[C@H](C)[C@@H](O[C@H]2C[C@@](C)(OC)[C@@H](O)[C@H](C)O2)[C@H](C)[C@@H](O[C@@H]2O[C@H](C)C[C@H](N(C)C)[C@H]2O)[C@](C)(O)C[C@@H](C)C(=O)[C@H](C)[C@@H](O)[C@]1(C)O.O.O.O.O.O.O.O=C(O)[C@H](O)[C@@H](O)[C@H](O[C@@H]1O[C@H](CO)[C@H](O)[C@H](O)[C@H]1O)[C@H](O)CO [erythromycin lactobionate hexahydrate] | 4 | 0.06 | 0.5 | 16 | 4 | 8 | 0.12 to 8 | 0.25 | 1 | 0.06 to 2 | 0.06 | 1 | 0.03 to 0.5 | 4 | 16 | 0.5 to 64 | 0.06 | 0.12 | 0.03 to 16 | 0.06 | MIC50 (Anaerobe; 16 strains): 2 µg/mL; MIC90 (Anaerobe; 16 strains): 16 µg/mL; MIC (Anaerobe; range over 16 strains): 0.06 to 64 µg/mL; MIC90 [3]: 32 µg/mL; MIC [3]: 0.03 to 32 µg/mL; Assay (%) ([4]; month 0): 99.7%; Form ([4]; month 0): off-white powder; Assay (%) ([4]; month 1): 99.6%; Form ([4]; month 1): off-white powder; Assay (%) ([4]; month 2): 100.2%; Form ([4]; month 2): off-white powder; Assay (%) ([4]; month 3): 99.8%; Form ([4]; month 3): off-white powder; Assay (%) ([4]; month 6): 99.6%; Form ([4]; month 6): off-white powder; MIC50 (Staphylococcus aureus): 0.12 µg/mL |
| CC[C@H]1OC(=O)[C@H](C)[C@@H](O[C@H]2C[C@@](C)(OC)[C@@H](O)[C@H](C)O2)[C@H](C)[C@@H](O[C@@H]2O[C@H](C)C[C@H](N(C)C)[C@H]2O)[C@](C)(O)C[C@@H](C)C(=O)[C@H](C)[C@@H](O)[C@]1(C)O.O.O.O.O.O.O=C(O)[C@H](O)[C@@H](O)[C@H](O[C@@H]1O[C@H](CO)[C@H](O)[C@H](O)[C@H]1O)[C@H](O)CO [erythromycin lactobionate pentahydrate] | 4 | 0.06 | 0.5 | 16 | 4 | 8 | 0.12 to 8 | 0.25 | 1 | 0.06 to 2 | 0.06 | 1 | 0.03 to 0.5 | 4 | 16 | 0.5 to 64 | 0.06 | 0.12 | 0.03 to 16 | 0.06 | potency [5]: 626 u/mg; MIC90 [3]: 32 µg/mL; MIC [3]: 0.03 to 32 µg/mL; Assay (%) ([4]; month 0): 99.9%; Form ([4]; month 0): off-white powder; Assay (%) ([4]; month 1): 100.2%; Form ([4]; month 1): off-white powder; Assay (%) ([4]; month 2): 99.8%; Form ([4]; month 2): off-white powder; Assay (%) ([4]; month 3): 100.1%; Form ([4]; month 3): off-white powder; Assay (%) ([4]; month 6): 99.9%; Form ([4]; month 6): off-white powder; MIC50 (Staphylococcus aureus): 0.12 µg/mL |
